The values below come from ChEMBL document CHEMBL1268864, “Dolabranes from the Chinese Mangrove, Ceriops tagal” (2010).

Calls of active or inactive are those of the source. No cut-off for these calls is given here.

The subject of one experiment is MDA-MB-468. The experiment can be described thus: Cytotoxicity against human MDA-MB-468 cells by MTT assay. The format is functional, cell-based.
The next experiment relates to MDA-MB-435. Put plainly: Cytotoxicity against human MDA-MB-435 cells by MTT assay. The format is functional, cell-based.
Experiment [1] relates to Brontispa longissima. Put plainly: Antifeedant activity against third-instar larvae of Brontispa longissima at 1 mg/ml after 24 hrs by leaf disk method. The format is functional.
Experiment [2] concerns Brontispa longissima. The experiment can be described thus: Antifeedant activity against third-instar larvae of Brontispa longissima at 0.5 mg/ml after 48 hrs by leaf disk method. The format is functional.
For another experiment, the system named is A2058. Put plainly: Cytotoxicity against human A2058 cells by MTT assay. It is filed as functional, cell-based. On the technique in general: Tetrazolium dyes change colour on reduction, which living cells bring about.
Experiment [3] has as its system Brontispa longissima. Put plainly: Antifeedant activity against third-instar larvae of Brontispa longissima at 1 mg/ml after 48 hrs by leaf disk method. The format is functional.
Another experiment relates to DU-145. The experiment can be described thus: Cytotoxicity against human DU145 cells by MTT assay. The format is functional, cell-based.
In the next experiment the test system is G-361. The experiment can be described thus: Cytotoxicity against human G361 cells by MTT assay. The format is functional, cell-based.
In experiment [4] the test system is Brontispa longissima. The experiment can be described thus: Antifeedant activity against third-instar larvae of Brontispa longissima at 0.1 mg/ml after 48 hrs by leaf disk method. The format is functional.
For experiment [5], the system named is Brontispa longissima. The experiment can be described thus: Antifeedant activity against third-instar larvae of Brontispa longissima at 0.1 mg/ml after 24 hrs by leaf disk method. The format is functional.
In experiment [6] the test system is Brontispa longissima. The experiment can be described thus: Antifeedant activity against third-instar larvae of Brontispa longissima at 0.5 mg/ml after 24 hrs by leaf disk method. The format is functional.

Turning to `CC1=C(O)C(=O)C[C@@H]2[C@@]3(C)CC[C@](C)(O)C[C@@H]3CC[C@]12C` [TAGALSIN P], the outcome with MDA-MB-468, in the experiment on MDA-MB-435, in the experiment with A2058, with DU-145 and in the experiment with G-361 was inactive. Further, the Activity with Brontispa longissima [1] turned out to be 48%; in the experiment with Brontispa longissima [2], 6%; in the experiment on Brontispa longissima [3] it was 22%; in the experiment on Brontispa longissima [4] it was 2%; in the experiment on Brontispa longissima [5], 14%; in the experiment with Brontispa longissima [6], 18%.
Consider `C=C1C(=O)C=C[C@@H]2[C@@]3(C)CC[C@](C)(O)C[C@@H]3CC[C@]12C` [TAGALSIN Q], for which the outcome in the experiment with MDA-MB-468, in the experiment on MDA-MB-435, with A2058, in the experiment with DU-145 and in the experiment on G-361 was inactive. Also, the Activity in the experiment on Brontispa longissima [1] is on record as 53%; in the experiment with Brontispa longissima [2] it was 36%; with Brontispa longissima [3], 43%; in the experiment with Brontispa longissima [4], 30%; with Brontispa longissima [5], 23%; in the experiment with Brontispa longissima [6], 50%.
For the compound `C[C@]1(C(=O)O)CC[C@@]2(C)[C@@H](CC[C@]3(C)/C(=C/O)C(=O)CC[C@H]23)C1` [TAGALSIN R], the result in the experiment with MDA-MB-468, in the experiment with MDA-MB-435, in the experiment with A2058, in the experiment with DU-145 and with G-361 was inactive. The Activity amounted to 40% with Brontispa longissima [1]; 30% in the experiment on Brontispa longissima [2]; 28% with Brontispa longissima [3]; 7% in the experiment on Brontispa longissima [4]; 18% in the experiment with Brontispa longissima [5]; 37% with Brontispa longissima [6].
Regarding `C[C@]1(C(=O)CO)CC[C@@]2(C)[C@@H](CC[C@]3(C)/C(=C/O)C(=O)CC[C@H]23)C1` [TAGALSIN S], the outcome with MDA-MB-468, with MDA-MB-435, in the experiment on A2058, in the experiment with DU-145 and in the experiment on G-361 was inactive. The Activity in the experiment on Brontispa longissima [1] is given as 51%; in the experiment on Brontispa longissima [2], 37%; in the experiment on Brontispa longissima [3], 47%; with Brontispa longissima [4], 36%; in the experiment on Brontispa longissima [5], 25%; in the experiment with Brontispa longissima [6], 45%.
Take `C[C@]1(C(O)CO)CC[C@@]2(C)[C@@H](CC[C@]3(C)/C(=C/O)C(=O)CC[C@H]23)C1` (stereo partly specified) [TAGALSIN T]: the result in the experiment with MDA-MB-468, in the experiment with MDA-MB-435, in the experiment with A2058, with DU-145 and with G-361 was inactive. The Activity was -5% in the experiment with Brontispa longissima [1]; -31% with Brontispa longissima [2]; -20% in the experiment on Brontispa longissima [3]; -48% in the experiment on Brontispa longissima [4]; -32% in the experiment with Brontispa longissima [5]; -11% in the experiment with Brontispa longissima [6].
Regarding `C=C1C(=O)CC[C@@H]2[C@@]3(C)CC[C@](C)(C(O)CO)C[C@@H]3CC[C@]12C` (stereo partly specified) [TAGALSIN U], the result in the experiment on MDA-MB-468, with MDA-MB-435, in the experiment with A2058, in the experiment with DU-145 and in the experiment with G-361 was inactive. The Activity in the experiment on Brontispa longissima [1] was 52%; with Brontispa longissima [2], 31%; with Brontispa longissima [3], 41%; with Brontispa longissima [4], 10%; with Brontispa longissima [5] it was 14%; in the experiment on Brontispa longissima [6] it was 41%.
